Assay results as given in patent US11806386B2, “Type I diabetes therapy” (St. Vincent's Institute of Medical Research, priority 2017, dated 2023).

Legend:
JAK2 = JAK2 (Homo sapiens, UniProt O60674); settings: cited from earlier work
other JAK-family kinases = settings: cited from earlier work
[1] = test system: JAK/STAT signalling (p-STAT1); assay: IFNγ-mediated STAT1 phosphorylation in peripheral blood stimulated ex vivo after oral dosing (Western blot); design: species or system NOD mice; settings: 80 mg/kg daily oral gavage from 2 to 4 weeks of age; blood taken 2 h after last dose, 100 U/mL IFNγ ex vivo; p=0.01
Method: (A) NOD mice received 80 mg/kg ruxolitinib (n=5) or vehicle (n=5) daily by oral gavage from 2 to 4 weeks of age. Two hours after last dose of ruxolitinib or vehicle, peripheral blood was stimulated with 100 U/mL IFNγ ex vivo and analysed by Western blot for IFNγ-mediated phosphorylation of STAT1 and housekeeping protein β-actin. The intensity of p-STAT1 as a ratio of β-actin in arbitrary units (mean±SEM) was used to measure p-STAT1. p=0.01 using two-tailed unpaired t test.
The JAK1/JAK2 inhibitor ruxolitinib was purchased from Chemietek (USA). […] Mice receiving JAK inhibitor were treated with 80 mg/kg ruxolitinib daily by oral gavage from 2 to 4 weeks of age. Control mice received the same volume of vehicle by oral gavage.
Peripheral whole blood was stimulated with 100 U/mL IFN-γ (Biolegend) for 30 min at 37° C. […] Samples were further treated with radioimmunoprecipitation assay buffer (R0278, Sigma), sample buffer (10% SDS, 30% glycerol, 0.02% bromophenol blue in 250 mM Tris-HCl, pH 6.8) and β-mercaptoethanol. Near-infrared fluorescent western blotting was performed using anti-p-STAT1 antibody (BD Biosciences), normalized to β-actin (Santa Cruz Biotechnology) and scanned on an Odyssey CLx imager.
At 4 weeks of age, two hours after the last oral gavage of 80 mg/kg ruxolitinib or vehicle, peripheral blood and islets were harvested from NOD mice.

diabetes in TIP2 mice = settings: combination therapy: TIP2 mice expressing proinsulin plus 10 mg/kg twice daily oral from 12 to 14 weeks of age (cohort 3); p<0.005
Method: Mice were monitored for 30 weeks (210 days). […] Diabetes incidence curves compared using Log-Rank (Mantel-Cox) test.
Removal of doxycycline allowed the maximal recovery of proinsulin expression by 12 weeks (84 days) of age.
Mice receiving JAK inhibitor were treated with 10 mg/kg dose twice daily by oral gavage from 12 to 14 weeks (day 84-98) of age. Control mice received the same volume of vehicle by oral gavage.
Female mice were monitored for diabetes weekly by measurement of urinary glucose levels using Diastix (Bayer). Those suspected of hyperglycaemia had further blood glucose level testing on two consecutive days using ACCU-CHEK Advantage II strips (Roche). Mice with two consecutive blood glucose measurements of greater than or equal to 15 mM were considered diabetic.
TIP2 mice were administered doxycycline until 8 weeks of age to suppress proinsulin expression. At 12 weeks of age TIP2 mice received JAK inhibitor (combination therapy; cohort 3; FIG. 4A) or vehicle (proinsulin monotherapy; cohort 2).

[2] = test system: IGRP-specific CD8+ T cells
Method: IGRP was expressed in TII mice at 10-weeks of age. NOD mice were used as controls without antigen expression. At 13-weeks of age, mice were treated for 2 weeks with vehicle (Veh) or JAK inhibitor (JAKi). Mice were harvested for analysis immediately after treatment (2 week), or after a further 2 or 4 weeks with antigen alone (4 week and 6 week). The number of IGRP-specific CD8+ T cells in the peripheral lymphoid organs (PLO, top panel) or islets (bottom panel) is shown for each time point.
TII mice received doxycycline until 10-weeks of age. After doxycycline was removed, IGRP was expressed in antigen presenting cells of mice carrying both tetO-IGRP and IEα-tTA transgenes. Mice were treated with 10 mg/kg JAK inhibitor or vehicle between 13-15 w of age for 2 weeks. Mice were analysed at 2 weeks (harvest immediately after stopping JAK inhibitor), 4 weeks (harvest two weeks after stopping JAK inhibitor), and 6 weeks (harvest four weeks after stopping JAK inhibitor). Data is from 1-3 experiments per time point with 3-4 mice per group/experiment.
Cells were washed then stained with anti-PE MicroBeads (Miltenyi Biotec) and magnetically separated using an AutoMACSpro (Miltenyi Biotec).
Fluorescent-labelled monoclonal antibodies specific for CD4 (GK1.5) bound to APC-Cy7, CD8 (53-6.7) bound to FITC, CD3 (500A2) bound to AmCyan, CD44 (IM7) bound to Alexa Fluor 700, and CD11 b (M1/70), CD11c (N418) and Ly6G (RB6-8C5) bound to Pacific Blue were used to stain magnetically sorted cells. Analysis was performed using FACSFortessa (BD Bioscience) and FlowJo software (TreeStar). Single cells were gated on forward and side scatter, and dead cells excluded using propidium iodide. CD11 b^− CD11c^− Ly6G^− CD3^+ CD8^+ cells were gated as the target population for analysis of IGRP tetramer-positive T cells.

JAK2, sequence (O60674 whole entry, species assumed): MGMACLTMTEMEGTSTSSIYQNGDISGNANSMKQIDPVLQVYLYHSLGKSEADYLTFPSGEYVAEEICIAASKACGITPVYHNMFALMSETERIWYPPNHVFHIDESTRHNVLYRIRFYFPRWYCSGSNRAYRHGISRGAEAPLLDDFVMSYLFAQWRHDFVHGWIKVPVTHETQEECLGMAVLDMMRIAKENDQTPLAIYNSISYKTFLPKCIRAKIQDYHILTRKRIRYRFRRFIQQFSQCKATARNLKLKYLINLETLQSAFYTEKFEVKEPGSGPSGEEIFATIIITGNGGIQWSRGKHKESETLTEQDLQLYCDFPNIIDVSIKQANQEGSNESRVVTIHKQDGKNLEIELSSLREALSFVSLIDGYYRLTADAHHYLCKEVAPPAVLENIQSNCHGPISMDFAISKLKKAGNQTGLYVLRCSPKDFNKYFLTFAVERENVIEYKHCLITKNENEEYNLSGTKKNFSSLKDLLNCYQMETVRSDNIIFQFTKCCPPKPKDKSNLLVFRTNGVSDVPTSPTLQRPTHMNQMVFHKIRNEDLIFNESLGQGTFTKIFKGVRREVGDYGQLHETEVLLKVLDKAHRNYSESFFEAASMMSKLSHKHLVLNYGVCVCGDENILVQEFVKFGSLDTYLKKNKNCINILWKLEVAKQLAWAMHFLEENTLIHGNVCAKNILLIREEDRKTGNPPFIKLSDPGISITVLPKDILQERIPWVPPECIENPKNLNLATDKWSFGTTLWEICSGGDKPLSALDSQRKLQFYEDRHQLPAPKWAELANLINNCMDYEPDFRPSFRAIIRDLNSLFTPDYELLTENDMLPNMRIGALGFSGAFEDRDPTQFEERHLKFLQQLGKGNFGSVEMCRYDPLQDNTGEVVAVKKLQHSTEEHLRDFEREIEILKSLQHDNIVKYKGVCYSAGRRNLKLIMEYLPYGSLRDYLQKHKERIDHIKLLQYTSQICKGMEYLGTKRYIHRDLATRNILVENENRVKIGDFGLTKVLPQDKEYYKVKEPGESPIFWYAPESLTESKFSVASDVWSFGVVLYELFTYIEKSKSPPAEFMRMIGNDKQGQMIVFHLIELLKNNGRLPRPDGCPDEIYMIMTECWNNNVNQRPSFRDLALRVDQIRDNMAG

## C[C@H](Nc1cc(-c2cnn(C)c2)cc(Nc2cnccn2)n1)c1ccc(F)cc1 [NS018]
JAK2
  IC50: < 1 nM
Other JAK-family kinases
  selectivity for JAK2 over other JAK-family kinases: 30-50 fold

## N#CC[C@H](C1CCCC1)n1cc(-c2ncnc3[nH]ccc23)cn1 [ruxolitinib]
[1]
  reduction of STAT1 phosphorylation compared to vehicle-treated NOD mice: greater than 50%

## CC(C)(C)c1nc2c3cc[nH]c(=O)c3c3cc(F)ccc3c2[nH]1 [JAK inhibitor]
Diabetes in TIP2 mice
  protection from diabetes at 30 weeks of age (210 days): significantly protected from diabetes
[2]; NOD mice without antigen expression (NOD-JAKi)
  IGRP specific memory T cells 2 weeks after cessation of treatment: returned
[2]; TII mice expressing IGRP from 10 weeks, 10 mg/kg for 2 weeks, TII-Veh vs TII-JAKi
  IGRP specific memory T cells in PLO and in islets immediately after 2 weeks of treatment: decrease
[2]; TII mice with antigen expression (TII-JAKi), islets at 6 weeks p=0.02, PLO p=0.054
  IGRP specific memory T cell numbers after cessation of treatment: remained low
